# Assay results taken from patent publication US20150368681A1, “Dehydroascorbic Acid Process” (priority 2014, published 2015).
# Test: Storage stability of DHAA in oxidized zucchini puree product, DHAA concentration by TCEP differential absorbance method
# Format: physicochemical
# Description: Four zucchini fruits about 6-8 inches long were purchased at a local grocery store. The shelf labeling indicated the fruits were a product of Mexico, as might be expected in Utah during the month of November when this experiment was conducted. Thus the fruit was not locally-grown and probably older (stored longer since picked) than known fresh-picked fruit. It is known that the AAO activity of zucchini fruit decreases during storage after being picked. The epicarp and outer portions of the mesocarp were peeled from the fruits, to the extent that approximately one-half of the weight of each fruit was included in the peelings. 300 grams of peelings were added to a blender with 100 grams purified water and pureed. 20 grams of the puree was removed and reserved for a “blank”. To the remaining puree (380 grams) was added 1.4 grams AA (as pure crystals approximately US mesh size 20-40) and the puree was mixed in the blender about 1 minute. The pH of the puree was measured and found to be 5.2, and a redox test indicated AA reducing activity in the puree. The puree was allowed to stand with periodic brief mixing for 35 minutes. […] A 20 gram portion was removed for a “test.” The blank and test solutions were centrifuged to remove the pulp so that pulp-free solutions could be spectrophotometrically analyzed. 25 uL of each of these solutions were diluted in 10 mL of 0.15 M phosphoric acid diluent, and the absorbance of each was determined using a UV spectrometer at 262 nm wavelength blanked against diluent. 2 mL of each dilution were combined with 2 mL of a TCEP reagent, incubated one hour, and then the absorbance at 262 nm of these solutions were determined as above (TCEP reagent reduces DHAA in the solution to AA; absorbance measurements at wavelengths where AA strongly absorbs, before and after treatment with TCEP, is a method known to practitioners in the art to quantify DHAA concentration by the differential absorption principle). The following absorption values were obtained (TCEP values are corrected for the X2 dilution):
# One whole zucchini fruit weighing 235 grams was pureed in 120 mL water in a blender. The pH of the initial zucchini puree was 6.5. At time 0 minutes, 1.0 gram crystalline AA was added. After mixing 30 seconds, the pH was 5.0. At the times indicated in the table below, pH was recorded, iodine indicator redox result was recorded, and/or additional AA in the amounts indicated were added after testing the pH and redox status. The zucchini puree was continuously mixed in the blender during the entire time, and a cap in the top of the blender was left open to allow fresh air to be drawn into the vortex of the puree in the blender.
# The product was split into three equal parts. Part 1 was kept in a closed container at room temperature. Part 2 was kept in a closed container at standard refrigerator temperature of 4 degrees C. Part 3 was kept in a closed container at common freezer temperature of minus 20 degrees C. Part 1 was tested immediately for DHAA concentration by the TCEP method previously discussed, and then after overnight storage (approx. 12 hours); Part 2 was tested after overnight storage (approx. 12 hours), and then after 13 days; Part 3 was tested after 13 days. Recovery column is the actual concentration divided by the maximum expected DHAA concentration of 2.4%, expressed as percent.
structure (smiles),measurement,setting,value
"O=C1O[C@H]([C@@H](O)CO)C(=O)C1=O [DHAA, dehydroascorbic acid]",DHAA Concentration,"Example 3 product, Part 1, tested immediately, storage 0 hours",2.27%
same,DHAA Concentration,"Part 1, closed container, room temperature, 12 hours",1.68%
same,DHAA Concentration,"Part 2, refrigerator 4 degrees C, 12 hours",2.14%
same,DHAA Concentration,"Part 2, refrigerator 4 degrees C, 312 hours (13 d)",1.27%
same,DHAA Concentration,"Part 3, freezer minus 20 degrees C, 312 hours (13 d)",2.10%
same,Loss of DHAA on frozen storage,product stored frozen for at least 13 days,minimal loss
